Assay results published in article PMC11591545 (Antibiotics, 2024).
≈ marks a conversion by molar mass, not a printed value. Read-outs that look alike come from different tables or passages of the source.

How the values were obtained:
[1] = label; cited from earlier work
clinical [2] = conditions: human, in vivo, iv
[3] = in vivo
[4] = fixed in the final model, based on a previous reported value; cited from earlier work
[5] = human
Protocol: (§1) Sampling was routinely performed on three occasions for each patient at day 1 (30 min after the end of the infusion), day 7 (before redosing), and day 42 (before redosing). Blood samples were centrifuged (5 min, 4000 rpm) immediately after collection and aliquoted into 2 mL propylene tubes (Eppendorf, Hamburg, Germany). Aliquots were stored at −20 °C within 60 min after sample collection for a maximum of 4 weeks until assay. […] To obtain the unbound fraction, samples were prepared by solid phase extraction using a Nanosep® filter (Pall, New York, NY, USA) [18]. The limit of quantification (QL) was 12.5 mg/L for the total concentration and 1 mg/L for the unbound fraction [18].

[6] = cited from earlier work
S. aureus = assay: Individual fAUC24 h/MIC at the end of the dosing interval in VAD patients; conditions: last 24 h before redosing
Protocol: To use a conservative approach in suppressive therapy reflecting efficacy in the crucial phase before redosing, the AUC was calculated at the end of the dosing interval (last 24 h before redosing) [21].

[7] = system: S. aureus infection isolates; assay: MIC strips test and broth microdilution assay according to EUCAST; type: cell-based, Staphylococcus aureus
Protocol: The MIC was tested with the MIC strips test (Liofilchem, Roseto degli Abruzzi, Italy) and broth microdilution assay according to EUCAST standards and the manufacturer’s instructions. All patients with VAD-associated infections were included in a register study after providing informed consent. A positive vote of the ethics committee of Heidelberg University Hospital was obtained before the start of the study (S-674/2022). […] Clinical data and laboratory and microbiological results were extracted.

[8] = serum, mean ± SD
Protocol: as §1

clinical [9] = conditions: human, serum, iv, 1500 mg; SD
Protocol: as §1

SMILES: CN[C@H]1C(=O)N[C@@H]2Cc3ccc(cc3)Oc3cc4cc(c3O[C@@H]3O[C@H](C(=O)O)[C@@H](O)[C@H](O)[C@H]3NC(=O)CCCCCCCCC(C)C)Oc3ccc(cc3Cl)[C@@H](O)[C@@H]3NC(=O)[C@H](NC(=O)[C@@H]4NC(=O)[C@@H](NC2=O)c2cc(cc(O)c2Cl)Oc2cc1ccc2O)c1ccc(O)c(c1)-c1c(O[C@H]2O[C@H](CO)[C@@H](O)[C@H](O)[C@@H]2O)cc(O)cc1[C@@H](C(=O)NCCCN(C)C)NC3=O [dalbavancin]
- labeled protein binding [1]: 93%
- Vd (clinical [2]): 21.9 L
- clearance (clinical [2]): 0.833 mL/min
- CL, bootstrap mean (CI 95%) [3]: 0.050 (0.044–0.055) L/h
- V1, bootstrap mean (CI 95%) [3]: 6.42 (5.65–7.31) L
- V1, central volume of distribution, estimate [3]: 6.5 L
- V2, bootstrap mean (CI 95%) [3]: 14.99 (12.46–18.67) L
- V2, peripheral volume of distribution, estimate [3]: 15.4 L
- Q, inter-compartmental clearance [4]: 0.476 L/h
- observed protein binding [5]: 96-98%
- population VD ([6]; earlier population PK studies): 15.0 to 16.7 L
- half-life ([6]; reported): 15.6 days
- clearance (CL) ([6]; three-compartment model, ref Carrothers et al. 14): 0.053 L/h
- clearance (CL) ([6]; two-compartment model, ref Buckwalter et al. 11): 0.057 L/h
- clearance (CL) ([6]; two-compartment model, ref Cojutti et al. 13): 0.041 L/h
- fAUC24 h/MIC (S. aureus; patient 1): 141
- fAUC24 h/MIC (S. aureus; patient 2): 318
- fAUC24 h/MIC (S. aureus; patient 3, MIC not available, calculated with S. aureus breakpoint 0.25 mg/L): 26
- fAUC24 h/MIC (S. aureus; patient 4, MIC not available, calculated with S. aureus breakpoint 0.25 mg/L): 127
- fAUC24 h/MIC (S. aureus; patient 5): 110
- fAUC24 h/MIC (S. aureus; patient 6, MIC not available, calculated with S. aureus breakpoint 0.25 mg/L): 49
- fAUC24 h/MIC (S. aureus; patient 7): 165
- fAUC24 h/MIC (S. aureus; patient 8): 253
- fAUC24 h/MIC (S. aureus; patient 9): 582
- fAUC24 h/MIC (S. aureus; patient 10): 60
- fAUC24 h/MIC (S. aureus; patient 11): 311
- fAUC24 h/MIC (S. aureus; patient 12): 104
- fAUC24 h/MIC (S. aureus; patient 13): 84
- MIC ([7]; isolate of patient 1): 0.064 µg/mL (≈ 0.0352 µM)
- MIC ([7]; isolate of patient 2): 0.064 µg/mL (≈ 0.0352 µM)
- MIC ([7]; isolate of patient 5): 0.094 µg/mL (≈ 0.0517 µM)
- MIC ([7]; isolate of patient 7): 0.047 µg/mL (≈ 0.0259 µM)
- MIC ([7]; isolate of patient 8): 0.047 µg/mL (≈ 0.0259 µM)
- MIC ([7]; isolate of patient 9): 0.064 µg/mL (≈ 0.0352 µM)
- MIC ([7]; isolate of patient 10): 0.125 µg/mL (≈ 0.0688 µM)
- MIC ([7]; isolate of patient 11): 0.064 µg/mL (≈ 0.0352 µM)
- MIC ([7]; isolate of patient 12): 0.047 µg/mL (≈ 0.0259 µM)
- MIC ([7]; isolate of patient 13): 0.064 µg/mL (≈ 0.0352 µM)
- fcday1 (unbound concentration day 1) ([8]; end of infusion after the first dose): 6.3 ± 2.7
- fcday8 (unbound concentration day 8) ([8]; trough by the end of the first week): 1.3 ± 0.6
- level at 0.5 h (clinical [9]): 218000 ± 65900 ng/mL
- level at 168 h (clinical [9]): 41100 ± 11100 ng/mL
- level at 1008 h (clinical [9]): 13200 ± 9900 ng/mL
